One test deals with T1, activated human C1 (Homo sapiens, UniProt P09871).
T1 sequence (P09871 438-688 limits assumed): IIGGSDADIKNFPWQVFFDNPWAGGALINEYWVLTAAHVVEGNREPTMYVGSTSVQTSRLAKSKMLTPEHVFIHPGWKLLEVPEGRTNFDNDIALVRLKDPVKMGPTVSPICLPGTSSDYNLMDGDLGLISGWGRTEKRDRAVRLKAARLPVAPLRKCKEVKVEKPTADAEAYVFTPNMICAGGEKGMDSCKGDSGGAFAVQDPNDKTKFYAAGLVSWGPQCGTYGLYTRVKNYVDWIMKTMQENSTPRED
T1 sequence (P09871 16-437 limits assumed): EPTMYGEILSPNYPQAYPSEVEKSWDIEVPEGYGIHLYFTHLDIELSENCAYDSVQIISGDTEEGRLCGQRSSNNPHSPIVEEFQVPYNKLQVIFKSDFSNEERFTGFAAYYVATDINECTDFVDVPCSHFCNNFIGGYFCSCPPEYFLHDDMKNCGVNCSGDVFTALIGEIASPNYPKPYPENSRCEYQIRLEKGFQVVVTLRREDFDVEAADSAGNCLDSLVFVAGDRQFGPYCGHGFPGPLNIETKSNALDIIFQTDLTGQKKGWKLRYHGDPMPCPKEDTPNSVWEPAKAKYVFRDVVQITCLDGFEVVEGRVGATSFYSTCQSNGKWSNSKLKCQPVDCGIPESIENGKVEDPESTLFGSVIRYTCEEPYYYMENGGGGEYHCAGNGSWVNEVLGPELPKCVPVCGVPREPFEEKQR
As to the kind of experiment: Test, Code 026 (C1 inhibitor). The test is classed as biochemical. The note with it: activity in wells of a serial two-fold dilution assay; higher well number indicates higher activity. The source says:
(§1) This test measures the ability of activated human C1 to destroy fluid phase human C2 in the presence of C4 and appropriate dilutions of the test compound. An active inhibitor protects C2 from C1 and C4; (ii) Test, Code 035 (C3-C9 inhibitor). This test determines the ability of the late components of human complement (C3-C9) to lyse EAC 142 in the presence of appropriate dilutions of the test compound. An active inhibitor protects EAC 142 from lysis by human C3-C9; (iii) Test, Code 036 (C-Shunt inhibitor). In this test human erythrocytes rendered fragile are lysed in autologous serum via the shunt pathway activated by cobra venom factor in the presence of appropriate dilutions of the test compound. Inhibition of the shunt pathway results in failure of lysis; (iv) Forssman Vasculitis Test - Here, the well known complement dependent lesion, Forssman vasculitis, is produced in guinea pigs by intradermal injection of rabbit anti-Forssman antiserum. […]

Test [1] relates to late components of human complement (C3-C9). Kind of test: Test, Code 035 (C3-C9 inhibitor). The test is classed as biochemical. As to conditions: activity in wells of a serial two-fold dilution assay; higher well number indicates higher activity.
From the text: as §1

In test [2] the test system is shunt pathway activated by cobra venom factor. As to the kind of experiment: Test, Code 036 (C-Shunt inhibitor). The test is classed as cell-based, human. The note with it: activity in wells of a serial two-fold dilution assay; higher well number indicates higher activity.
From the text: as §1

Test [3] has as its system whole complement in serum. Kind of test: Complement Level Reduction Test (in vivo, capillary tube assay of serum). The note with it: Cavia porcellus, ip, guinea pig, 200 mg/kg i.p., read-out: In Vivo Activity (Guinea Pig) % Inhibition Intraperitoneal.

Counter-ions that a name gives are not always drawn. Like-named read-outs stand apart in the source and are kept apart here.

With `O=S(=O)(O)c1ccc(NS(=O)(=O)c2ccc3c(S(=O)(=O)Nc4ccc(S(=O)(=O)O)cc4)cc(S(=O)(=O)Nc4ccc(S(=O)(=O)O)cc4)cc3c2)cc1` [4,4',4"-[1,3,6-Naphthalenetris(sulfonylimino)]trisbenzenesulfonic acid trisodium salt], the “Cl 0.26* Wells” value on activated human C1 is reported as “+4 Wells”. Moreover, the “C-Late 0.35* Wells” value in test [1] was “N”. The “Shunt Inhibition 0.36* Wells” value in test [2] is listed as “N”.

In the case of `O=S(=O)(O)c1cc(NS(=O)(=O)c2ccc3c(S(=O)(=O)Nc4cc(S(=O)(=O)O)cc(S(=O)(=O)O)c4)cc(S(=O)(=O)Nc4cc(S(=O)(=O)O)cc(S(=O)(=O)O)c4)cc3c2)cc(S(=O)(=O)O)c1` [5,5',5"-[1,3,6-Naphthalenetris(sulfonylimino)]tris-1,3-benzenedisulfonic acid hexasodium salt], the “C-Late 0.35* Wells” value in test [1] was “N”. In addition, the inhibition at 200 mg/kg is -85% in test [3] (0.5 h, 30 minutes); -86% in test [3] (1 h, 60 minutes); -86% in test [3] (2 h, 120 minutes).

One may read the inhibition as the relative decrease from the control value, in per cent.
